What was measured:
shed/soluble BCMA = experiment: GSI inhibition of shed/soluble BCMA (sBCMA), ELISA of supernatants, 72 hours, serial dilutions (Example 2, FIG. 8, Table 3); assay type: cell-based, human; conditions: inhibition of BCMA shedding / enhancement of membrane BCMA
Experimental: Target human cancer cell lines expressing various levels of human BCMA (NCI-H929^[High], MM1S^[Med], U266B1^[low]) were all transduced to constitutively express luciferase, which is used to measure cell viability/survival with the BrightGlo reagent (Promega E2650). Target cells were plated 30,000 cells per well in a 96 well plate (Costar 3904) together with serial dilutions of a panel of gamma secretase inhibitors (Table 2). The plate was incubated at 37° C./5% CO2 for 72 hours, followed by measurements of cell viability (BrightGlo, Promega # E2650) according to vendor protocol. In a replicate set of assay plates, cell culture supernatants were collected by centrifugation and quantified for levels of soluble BCMA by ELISA (R&D Systems, DY193), and the remaining cells were stained with a PE conjugated BCMA antibody (clone 19F2, Biolegend 357504) and analyzed by flow cytometry for BCMA cell surface expression levels.
Raw OD450 values from the BCMA ELISA were plotted together with the mean fluorescent intensity values from flow cytometry analysis of cells stained with anti-BCMA antibody, and are shown for MM1S cells treated with the various GSIs in FIG. 8. Table 3 summarizes the EC50 results of all the GSIs on the three BCMA-expressing cell lines.

[1] = test system: BCMA cell surface expression; experiment: BCMA cell surface expression by flow cytometry (PE conjugated BCMA antibody) with or without GSI treatment (Example 1, FIG. 2); assay type: cell-based, human; conditions: BCMA-expressing multiple myeloma cell lines
Experimental: BCMA expressing cell lines were also treated overnight with and without GSIs. Cell culture supernatants were collected and quantified for levels of soluble BCMA by ELISA (R&D Systems, # DY193). Additionally, remaining cells were pelleted, stained with a PE conjugated BCMA antibody (clone 19F2, Biolegend #357504) and analyzed by flow cytometry for BCMA cell surface expression levels.
BCMA cell surface expression level was determined by flow cytometry on cell lines with or without GSI treatment.

Q: For `C[C@H](c1ccc(F)cc1CCCC(=O)O)N(c1cc(F)ccc1F)S(=O)(=O)c1ccc(Cl)cc1` [BMS-299897], which “efficacious concentrations among the panel of GSIs (rank of potency)” value (shed/soluble BCMA) is on record?
A: least

Q: With `C[C@H](NC(=O)Cc1cc(F)cc(F)c1)C(=O)N[C@H](C(=O)OC(C)(C)C)c1ccccc1` [DAPT] as the molecule, how does the “cell surface expression of BCMA” value [1] read?
A: strongly enhances

Q: `C[C@H](NC(=O)[C@@H](O)c1cc(F)cc(F)c1)C(=O)N[C@@H]1C(=O)N(C)c2ccccc2-c2ccccc21` [LY-411575, (S)-2-((S)-2-(3,5-difluorophenyl)-2-hydroxyacetamido)-N—((S)-5-methyl-6-oxo-6,7-dihydro-5H-dibenzo[b,d]azepin-7-yl)propanamide] was tested. Which “cell surface expression of BCMA” value [1] did it give?
A: strongly enhances

Q: And the “efficacious concentrations among the panel of GSIs (rank of potency)” value (shed/soluble BCMA)?
A: most potent

— patent publication US20200179511A1, “BCMA-TARGETING AGENT, AND COMBINATION THERAPY WITH A GAMMA SECRETASE INHIBITOR” (Novartis AG, priority 2017, published 2020)
